Tested on: strain CY7284
Assay: lacZ assay, Cp5766 in strain CY7284 with integrated LexAop-lacZ
Assay type: cell-based, yeast
Details: after 3 hours of treatment, data not shown
Protocol: In addition to transformation of the chimeric construct, the construct may also be integrated into the yeast strain. […] The lacZ assay was performed as described above.

a-factor
increase of β-galactosidase activities: 63 fold

From patent US7022513B2, “Cell based signal generation” (priority 1999, dated 2006)
